Starred links: 1 amine or outer side, 2 acyl side, 3 side chain; linkers in the order of their positions; H or OH if unused. Positions of bridges follow the written chain, without caps; N, C: chain ends. Non-standard residues stand in square brackets, D forms with d. Residues, ends and D or L forms follow the SMILES beside them. *: point of attachment. hPhe(3,5-F2-4-CF3) = N[C@@H](CCc1cc(F)c(C(F)(F)F)c(F)c1)C(=O)O; hPhe(3-Cl-4-CF3) = N[C@@H](CCc1ccc(C(F)(F)F)c(Cl)c1)C(=O)O; hPhe(3-F,4-CF3) = N[C@@H](CCc1ccc(C(F)(F)F)c(F)c1)C(=O)O; NMePhe(4-CF3) = CN[C@@H](Cc1ccc(C(F)(F)F)cc1)C(=O)O; X63 = O=C(C(CCc1ccc(C(F)(F)F)c(Cl)c1)N[*:1])[*:2]; NMePhe(4-Me) = CN[C@@H](Cc1ccc(C)cc1)C(=O)O; X6 = CCN([C@@H](CC1CCCCC1)C(=O)[*:2])[*:1]; NMedβ3hAla = C[C@H](CC(=O)[*:2])N(C)[*:1]; NMeAla(cPent) = CN[C@@H](CC1CCCC1)C(=O)O; NMe4Pal = CN[C@@H](Cc1ccncc1)C(=O)O; NMeY = CN[C@@H](Cc1ccc(O)cc1)C(=O)O; X64 = CN(C)CCOCCN(CC(=O)[*:2])[*:1]; NMeCha = CN[C@@H](CC1CCCCC1)C(=O)O; NMeChg = CN[C@H](C(=O)O)C1CCCCC1; NMeI = CC[C@H](C)[C@H](NC)C(=O)O; NMeD = CN[C@@H](CC(=O)O)C(=O)O; NMeL = CN[C@@H](CC(C)C)C(=O)O; NMeAc5c = CNC1(C(=O)O)CCCC1; NMeV = CN[C@H](C(=O)O)C(C)C; NMeA = CN[C@@H](C)C(=O)O; Piperidide = C1CCN(*)CC1; Pyrrolidide = C1CCN(*)C1; Ac5c = NC1(C(=O)O)CCCC1; Aze = O=C(O)[C@@H]1CCN1; Sar = CNCC(=O)O
molecular target: T1, Kras and SOS1 (biotin-tagged human Kras loaded with GDP, His-tagged human SOS1) (Homo sapiens, UniProt P01116, G12D); test: Protein-protein interaction inhibition between Kras and SOS1 (KrasGl2D-SOS PPI) using AlphaScreen; format: binding; details: AlphaScreen; biotin-tagged human Kras loaded with GDP, His-tagged human SOS1; read-out: KRAS G12D-SOS PPI IC50
T1 construct: made in house; host or cells: E. coli (stated for Kras only)
In short: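 Binding between SOS1 and Kras is detected as bead-proximity luminescence: illuminate Ni-conjugated donors (680 nm), collect 520-620 nm emission from streptavidin-conjugated acceptors; Kras carries biotin and GDP loaded after purification, SOS1 carries a His tag.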

T1 sequence (P01116 1-188 isoform P01116-2 G12D): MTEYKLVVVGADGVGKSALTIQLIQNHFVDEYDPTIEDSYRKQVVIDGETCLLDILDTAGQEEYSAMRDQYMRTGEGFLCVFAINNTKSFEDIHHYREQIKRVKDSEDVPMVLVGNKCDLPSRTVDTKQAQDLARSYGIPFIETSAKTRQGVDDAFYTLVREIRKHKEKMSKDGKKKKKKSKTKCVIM

SMILES	IC50
CC[C@H](C)[C@@H]1NC(=O)[C@H](CC(C)C)N(C)C(=O)C[C@@H](C(=O)N2CCCCC2)N(C)C(=O)[C@H](C2CCCCC2)N(C)C(=O)C2(CCCC2)NC(=O)[C@H](Cc2ccc(OC)cc2)N(C)C(=O)[C@H](CCc2ccc(C(F)(F)F)c(Cl)c2)NC(=O)CN(C)C(=O)[C@H](CC2CCCCC2)N(C)C(=O)CN(C)C(=O)CN(C)C1=O [Compound 2171] ([NMeL]I[Sar][Sar][NMeCha][Sar][hPhe(3-Cl-4-CF3)][NMeY](Me)[Ac5c][NMeChg][NMeD]-Piperidide; lactam N-11)	120 nM
CC[C@H](C)[C@@H]1NC(=O)[C@H](CC(C)C)N(C)C(=O)C[C@@H](C(=O)N(C)C)N(C)C(=O)[C@H]([C@@H](C)CC)N(C)C(=O)C2(CCCC2)NC(=O)CN(CCOCCN(C)C)C(=O)C(CCc2ccc(C(F)(F)F)c(Cl)c2)NC(=O)CN(C)C(=O)[C@H](Cc2ccc(C)cc2)N(C)C(=O)[C@@H]2CCN2C(=O)[C@H](C)N(C)C1=O (stereo partly drawn) [Compound 2181, (3S,6S,9S,13S,16S,31S,34S)-25-[2-[3-chloro-4-(trifluoromethyl)phenyl]ethyl]-23-[2-[2-(dimethylamino)ethoxy]ethyl]-9-isobutyl-N,N,3,4,10,14,17,29,32-nonamethyl-6,16-bis[(1S)-1-methylpropyl]-2,5,8,11,15,18,21,24,27,30,33-undecaoxo-31-(p-tolylmethyl)spiro[1,4,7,10,14,17,20,23,26,29,32-undecazabicyclo[32.2.0]hexatriacontane-19,1′-cyclopentane]-13-carboxamide] ([NMeL]I[NMeA][Aze][NMePhe(4-Me)][Sar][X63][X64][Ac5c][NMeI][NMeD]-NMe2; lactam N-11)	5.5 nM

test system: Human pancreatic cancer cell line AsPC-1; test: Measurement of AsPC-1 cell growth inhibition (AsPC-1 CGI); format: cell-based; details: 96 h
Experimental: Measurement of AsPC-1 Cell Growth Inhibition (AsPC-1 CGI)
Test compounds were serially diluted with dimethyl sulfoxide, and 200 nL was then dispensed to a U-bottom 96-well plate using Labcyte Echo. Human pancreatic cancer cell line AsPC-1 was suspended in RPMI-1640 medium supplemented with 15% fetal bovine serum to prepare a cell suspension at 1000 cells/100 μL. The cell suspension was dispensed to a plate containing a test compound at 100 μL per well and incubated at 37° C. in a 5% carbon dioxide gas incubator. 96 hours later, 80 μL of CellTiter-Glo (Promega) was added to each well and […] was measured.

SMILES	IC50
CC[C@H](C)[C@@H]1NC(=O)[C@H](CC(C)C)N(C)C(=O)C[C@@H](C)N(C)C(=O)[C@H](CC(C)C)NC(=O)C2(CCCC2)N(C)C(=O)[C@H](CC(C)C)NC(=O)[C@H](CCc2ccc(C(F)(F)F)c(F)c2)NC(=O)CN(C)C(=O)[C@H](CC2CCCCC2)N(C)C(=O)CN(C)C(=O)CN(C)C1=O [Compound 2] (cyclo(I[Sar][Sar][NMeCha][Sar][hPhe(3-F,4-CF3)]L[NMeAc5c]L[NMedβ3hAla][NMeL]))	100 to 500 nM
CC[C@H](C)[C@@H]1NC(=O)[C@H](CC(C)C)N(C)C(=O)C[C@@H](C(=O)N2CCCCC2)N(C)C(=O)[C@H](C(C)C)N(C)C(=O)C2(CCCC2)NC(=O)[C@@H]2CCCN2C(=O)[C@H](CCc2ccc(C(F)(F)F)c(Cl)c2)NC(=O)CN(C)C(=O)[C@H](CC2CCCCC2)N(CC)C(=O)[C@@H]2CCN2C(=O)[C@H](C)N(C)C1=O [Compound 23] ([NMeL]I[NMeA][Aze][X6][Sar][hPhe(3-Cl-4-CF3)]P[Ac5c][NMeV][NMeD]-Piperidide; lactam N-11)	100 to 500 nM
CC[C@H](C)[C@@H]1NC(=O)[C@H](CC(C)C)N(C)C(=O)C[C@@H](C(=O)N2CCCCC2)N(C)C(=O)[C@H](C2CCCCC2)N(C)C(=O)C2(CCCC2)NC(=O)[C@H](Cc2ccncc2)N(C)C(=O)[C@H](CCc2ccc(C(F)(F)F)c(Cl)c2)NC(=O)CN(C)C(=O)[C@H](CC2CCCCC2)N(C)C(=O)CN(C)C(=O)CN(C)C1=O [Compound 36] ([NMeL]I[Sar][Sar][NMeCha][Sar][hPhe(3-Cl-4-CF3)][NMe4Pal][Ac5c][NMeChg][NMeD]-Piperidide; lactam N-11)	100 to 500 nM
CC[C@H](C)[C@@H]1NC(=O)[C@H](CC2CCCC2)N(C)C(=O)C[C@@H](C(=O)N2CCCCC2)N(C)C(=O)[C@H](C(C)C)N(C)C(=O)C2(CCCC2)NC(=O)[C@@H]2CCCN2C(=O)[C@H](CCc2ccc(C(F)(F)F)c(Cl)c2)NC(=O)CN(C)C(=O)[C@H](CC2CCCCC2)N(C)C(=O)[C@@H]2CCN2C(=O)[C@H](C)N(C)C1=O [Compound 37] ([NMeAla(cPent)]I[NMeA][Aze][NMeCha][Sar][hPhe(3-Cl-4-CF3)]P[Ac5c][NMeV][NMeD]-Piperidide; lactam N-11)	100 to 500 nM
CC[C@H](C)[C@@H]1NC(=O)[C@H](CC(C)C)N(C)C(=O)C[C@@H](C)N(C)C(=O)[C@H](C2CCCCC2)N(C)C(=O)C2(CCCC2)NC(=O)[C@@H]2CCCN2C(=O)[C@H](CCc2cc(F)c(C(F)(F)F)c(F)c2)NC(=O)CN(C)C(=O)[C@H](Cc2ccc(C(F)(F)F)cc2)N(C)C(=O)[C@@H]2CCN2C(=O)[C@H](C)N(C)C1=O [Compound 39] (cyclo([Ac5c][NMeChg][NMedβ3hAla][NMeL]I[NMeA][Aze][NMePhe(4-CF3)][Sar][hPhe(3,5-F2-4-CF3)]P))	100 to 500 nM
CC[C@H](C)[C@@H]1NC(=O)[C@H](CC(C)C)N(C)C(=O)C[C@@H](C(=O)N2CCCC2)N(C)C(=O)[C@H]([C@@H](C)CC)N(C)C(=O)C2(CCCC2)NC(=O)[C@@H]2CCCN2C(=O)[C@H](CCc2ccc(C(F)(F)F)c(F)c2)NC(=O)CN(C)C(=O)[C@H](Cc2ccc(C)cc2)N(C)C(=O)[C@@H]2CCN2C(=O)[C@H](C)N(C)C1=O [Compound 44] ([NMeL]I[NMeA][Aze][NMePhe(4-Me)][Sar][hPhe(3-F,4-CF3)]P[Ac5c][NMeI][NMeD]-Pyrrolidide; lactam N-11)	20 to 50 nM

Source: patent publication US12371454B2, “Cyclic peptide compound having Kras inhibitory action” (priority 2019, dated 2025)
